Measured values reported in patent US20250243180A1, “TARGETED PROTEIN DEGRADATION” (Monte Rosa Therapeutics AG, priority 2023, published 2025).
Like-named read-outs stand apart in the source and are kept apart here.

Columns and labels:
CRBN-DDB1 = CRBN-DDB1 (Homo sapiens (Human), UniProt Q96SW2); assay: Compound binding to CRBN by HTRF assay
Outline: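 Ki calculated via Cheng-Prusoff from geometric-mean EC50 values, after normalizing the HTRF ratio to lenalidomide (active) and DMSO (neutral) controls. Compounds (11 points, 1:3 steps) incubated 30 min at ambient temperature with CRBN-DDB1 2.5 nM, anti-His Tb cryptate and Cy5-thalidomide tracer 100 nM.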

NEK7 = NEK7 (Homo sapiens (Human), UniProt Q8TDX7+Q96SW2); assay: NEK7 NanoBiT degradation assay in Cal51 NEK7 NanoBiT cell line; assay type: cell-based; details: Cal51 NEK7 NanoBiT cells, 24 hours; for Dmax: CAL-51
NEK7, sequence (Q8TDX7 whole entry): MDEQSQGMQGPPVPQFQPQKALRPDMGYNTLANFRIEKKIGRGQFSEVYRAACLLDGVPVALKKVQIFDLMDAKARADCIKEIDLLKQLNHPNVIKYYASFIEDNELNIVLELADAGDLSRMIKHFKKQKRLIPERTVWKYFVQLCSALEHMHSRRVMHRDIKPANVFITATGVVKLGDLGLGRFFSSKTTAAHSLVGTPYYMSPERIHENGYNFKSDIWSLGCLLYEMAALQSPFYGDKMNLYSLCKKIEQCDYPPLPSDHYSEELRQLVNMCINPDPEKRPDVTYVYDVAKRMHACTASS
NEK7, sequence (Q96SW2 whole entry): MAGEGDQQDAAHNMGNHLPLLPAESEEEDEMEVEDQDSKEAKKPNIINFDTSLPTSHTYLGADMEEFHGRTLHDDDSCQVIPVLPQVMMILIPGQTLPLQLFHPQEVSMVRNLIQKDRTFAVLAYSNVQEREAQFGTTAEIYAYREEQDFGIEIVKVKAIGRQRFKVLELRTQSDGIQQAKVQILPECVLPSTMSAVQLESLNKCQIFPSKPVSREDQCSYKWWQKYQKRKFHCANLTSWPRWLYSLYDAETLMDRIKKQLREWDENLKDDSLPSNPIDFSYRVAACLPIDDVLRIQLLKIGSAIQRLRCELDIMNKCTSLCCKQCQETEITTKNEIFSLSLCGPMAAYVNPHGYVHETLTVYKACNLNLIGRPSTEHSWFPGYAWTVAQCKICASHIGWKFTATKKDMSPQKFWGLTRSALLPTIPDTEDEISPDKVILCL
NEK7, sequence (Q16531 2-1140 partner): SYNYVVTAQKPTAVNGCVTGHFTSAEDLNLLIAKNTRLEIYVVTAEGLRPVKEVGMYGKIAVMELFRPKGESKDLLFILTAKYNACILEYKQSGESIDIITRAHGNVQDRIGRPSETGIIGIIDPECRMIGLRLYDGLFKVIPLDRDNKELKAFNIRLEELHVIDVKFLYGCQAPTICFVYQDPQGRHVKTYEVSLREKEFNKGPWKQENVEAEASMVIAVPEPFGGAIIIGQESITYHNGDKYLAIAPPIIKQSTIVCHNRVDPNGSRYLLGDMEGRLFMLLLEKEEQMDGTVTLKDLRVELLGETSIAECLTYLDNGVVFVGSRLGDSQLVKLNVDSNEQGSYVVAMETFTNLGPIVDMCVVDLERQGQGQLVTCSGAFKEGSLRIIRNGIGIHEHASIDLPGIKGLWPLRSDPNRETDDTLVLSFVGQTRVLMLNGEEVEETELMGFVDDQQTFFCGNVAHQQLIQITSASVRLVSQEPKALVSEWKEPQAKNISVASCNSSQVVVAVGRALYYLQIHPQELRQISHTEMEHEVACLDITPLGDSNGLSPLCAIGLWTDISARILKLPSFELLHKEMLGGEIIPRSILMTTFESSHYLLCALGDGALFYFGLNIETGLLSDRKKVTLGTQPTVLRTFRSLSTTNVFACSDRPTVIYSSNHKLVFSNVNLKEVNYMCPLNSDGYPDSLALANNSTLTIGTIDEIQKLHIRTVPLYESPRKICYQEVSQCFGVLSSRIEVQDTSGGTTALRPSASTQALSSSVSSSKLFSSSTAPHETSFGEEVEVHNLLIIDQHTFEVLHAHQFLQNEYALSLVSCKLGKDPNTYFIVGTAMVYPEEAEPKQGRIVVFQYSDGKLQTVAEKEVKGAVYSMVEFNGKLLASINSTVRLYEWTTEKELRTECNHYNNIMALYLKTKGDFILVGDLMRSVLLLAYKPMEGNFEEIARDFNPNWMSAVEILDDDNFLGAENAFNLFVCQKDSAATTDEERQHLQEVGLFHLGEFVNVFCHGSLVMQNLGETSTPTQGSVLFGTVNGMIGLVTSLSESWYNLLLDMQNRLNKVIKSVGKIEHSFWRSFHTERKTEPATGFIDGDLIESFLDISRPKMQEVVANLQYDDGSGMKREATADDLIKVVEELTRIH
Outline: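 EC50 comes from a 4-parameter fit of control-normalized luminescence. The luminescence reports HiBiT-NEK7 (endogenous knock-in) complemented by stably expressed LgBiT in Cal51 cells after 24 h compound exposure at 37 °C. Final concentrations ran 1 μM to 0.05 nM, with Endurazine substrate present in the medium throughout.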

[1] = NEK7 degradation, read-out: NanoBiT Dmax
[2] = NEK7 degradation, read-out: NanoBiT DC50

CRBN-DDB1, sequence (Q96SW2 whole entry): as the sequence (Q96SW2 whole entry) above
CRBN-DDB1, sequence (Q16531 whole entry partner): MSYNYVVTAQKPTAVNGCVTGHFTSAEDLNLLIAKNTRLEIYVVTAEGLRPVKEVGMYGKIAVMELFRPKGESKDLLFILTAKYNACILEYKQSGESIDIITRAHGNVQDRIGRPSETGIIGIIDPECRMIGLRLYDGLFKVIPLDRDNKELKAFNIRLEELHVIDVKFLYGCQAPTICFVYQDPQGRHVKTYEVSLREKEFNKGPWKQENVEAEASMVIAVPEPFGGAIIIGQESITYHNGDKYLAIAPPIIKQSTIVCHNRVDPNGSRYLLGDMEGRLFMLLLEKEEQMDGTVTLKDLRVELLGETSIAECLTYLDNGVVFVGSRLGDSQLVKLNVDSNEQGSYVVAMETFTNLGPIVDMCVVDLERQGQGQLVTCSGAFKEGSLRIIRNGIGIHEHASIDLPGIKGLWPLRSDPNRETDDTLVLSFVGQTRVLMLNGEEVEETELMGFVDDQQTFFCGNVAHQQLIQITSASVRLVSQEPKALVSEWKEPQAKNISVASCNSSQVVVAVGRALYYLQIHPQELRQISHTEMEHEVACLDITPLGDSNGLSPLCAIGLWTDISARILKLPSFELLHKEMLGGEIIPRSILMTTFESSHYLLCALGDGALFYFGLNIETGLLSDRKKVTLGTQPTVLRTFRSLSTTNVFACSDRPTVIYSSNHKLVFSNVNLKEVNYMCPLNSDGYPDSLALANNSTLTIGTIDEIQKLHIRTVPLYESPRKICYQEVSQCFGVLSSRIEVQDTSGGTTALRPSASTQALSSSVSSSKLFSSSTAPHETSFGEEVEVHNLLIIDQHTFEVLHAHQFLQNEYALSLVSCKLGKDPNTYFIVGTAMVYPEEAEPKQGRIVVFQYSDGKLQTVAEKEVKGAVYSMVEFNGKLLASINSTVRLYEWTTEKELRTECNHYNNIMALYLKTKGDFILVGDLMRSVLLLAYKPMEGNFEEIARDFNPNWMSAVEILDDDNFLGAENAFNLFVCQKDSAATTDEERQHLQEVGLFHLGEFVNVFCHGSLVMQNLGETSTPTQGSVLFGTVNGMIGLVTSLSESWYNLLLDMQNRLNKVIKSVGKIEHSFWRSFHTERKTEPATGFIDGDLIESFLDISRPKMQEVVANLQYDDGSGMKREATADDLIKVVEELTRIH

Compound | EC50 (CRBN-DDB1) | EC50 (CRBN-DDB1; HTRF class, Cereblon binding) | Dmax (NEK7; read-out: NEK7 NanoBiT Dmax) | Dmax (NEK7; [1]) | DC50 (NEK7; read-out: NEK7 NanoBiT DC50) | DC50 (NEK7; [2])
CC1(C(=O)NCc2cc(Cl)c(C3CCC(=O)NC3=O)c(Cl)c2)COc2ccccc2C1 (stereo not drawn) [Compound 38, N-(3,5-dichloro-4-(2,6-dioxopiperidin-3-yl)benzyl)-3-methylchromane-3-carboxamide] | 40 nM | ≤ 100 nM | 90% | > 75% | 6 nM | ≤ 100 nM
CC(C)(C(=O)NCc1cc(Cl)c(C2CCC(=O)NC2=O)c(Cl)c1)c1ccc2c(c1)CNS2(=O)=O (stereo not drawn) [Compound 40] | 100 nM | ≤ 100 nM | 93% | > 75% | 8 nM | ≤ 100 nM
Cc1cc(C(C)(C)C(=O)NCc2cc(Cl)c(C3CCC(=O)NC3=O)c(Cl)c2)cc(=O)[nH]1 (stereo not drawn) [Compound 42, N-(3,5-dichloro-4-(2,6-dioxopiperidin-3-yl)benzyl)-2-methyl-2-(6-methyl-2-oxo-1,2-dihydropyridin-4-yl)propanamide] | 180 nM | 100 to 1000 nM | 93% | > 75% | 20 nM | ≤ 100 nM
CC(C)(C(=O)NCc1cc(Cl)c(C2CCC(=O)NC2=O)c(Cl)c1)c1ccn2cnnc2c1 (stereo not drawn) [Compound 44] | 230 nM | 100 to 1000 nM | 88% | > 75% | 38 nM | ≤ 100 nM
CCn1ccc(C(C)(C)C(=O)NCc2cc(Cl)c(C3CCC(=O)NC3=O)c(Cl)c2)cc1=O (stereo not drawn) [Compound 45] | 530 nM | 100 to 1000 nM | 91% | > 75% | 13 nM | ≤ 100 nM
CN1Cc2ccccc2CC1C(=O)NCc1cc(Cl)c(C2CCC(=O)NC2=O)c(Cl)c1 (stereo not drawn) [Compound 48] | 130 nM | 100 to 1000 nM | 66% | 50 to 75% | 54 nM | ≤ 100 nM
CC(C)(C(=O)NCc1cc(Cl)c(C2CCC(=O)NC2=O)c(Cl)c1)c1ccc(NS(C)(=O)=O)cc1 (stereo not drawn) [Compound 50] | 150 nM | 100 to 1000 nM | 88% | > 75% | 18 nM | ≤ 100 nM
Cc1cc(C(C)(C)C(=O)NCc2cc(Cl)c(C3CCC(=O)NC3=O)c(Cl)c2)cc(=O)n1C (stereo not drawn) [Compound 53] | 190 nM | 100 to 1000 nM | 92% | > 75% | 11 nM | ≤ 100 nM
CC(C)(C(=O)NCc1cc(Cl)c(C2CCC(=O)NC2=O)c(Cl)c1)c1ccn2ccnc2c1 (stereo not drawn) [Compound 55] | 100 nM | 100 to 1000 nM | 97% | > 75% | 1 nM | ≤ 100 nM
CC(C)(C(=O)NCc1ccc(C2CCC(=O)NC2=O)c(Cl)c1)c1ccc(S(N)(=O)=O)cc1 (stereo not drawn) [Compound 56] | 470 nM | 100 to 1000 nM | 67% | 50 to 75% | 244 nM | 100 to 1000 nM
CC(C)(C(=O)NCc1cc(Cl)c(C2CCC(=O)NC2=O)c(Cl)c1)c1ccc(C(N)=O)c(F)c1 (stereo not drawn) [Compound 57] | 130 nM | 100 to 1000 nM | 94% | > 75% | 3 nM | ≤ 100 nM
CN(C)S(=O)(=O)c1ccc(C(C)(C)C(=O)NCc2cc(Cl)c(C3CCC(=O)NC3=O)c(Cl)c2)cc1 (stereo not drawn) [Compound 58] | 130 nM | 100 to 1000 nM | 92% | > 75% | 6 nM | ≤ 100 nM
CC(C)(C(=O)NCc1cc(Cl)c(C2CCC(=O)NC2=O)c(Cl)c1)c1cc(F)[nH]c(=O)c1 (stereo not drawn) [Compound 59] | 140 nM | 100 to 1000 nM | 87% | > 75% | 28 nM | ≤ 100 nM

Continued by falling EC50 (CRBN-DDB1), values first:

EC50 (CRBN-DDB1) | EC50 (CRBN-DDB1; HTRF class, Cereblon binding) | Dmax (NEK7; read-out: NEK7 NanoBiT Dmax) | Dmax (NEK7; [1]) | DC50 (NEK7; read-out: NEK7 NanoBiT DC50) | DC50 (NEK7; [2]) | Compound
90 nM | ≤ 100 nM | 67% | 50 to 75% | 59 nM | ≤ 100 nM | CC(C)(C(=O)NCc1cc(Cl)c(C2CCC(=O)NC2=O)c(Cl)c1)c1cnc2ncsc2c1 (stereo not drawn) [Compound 52]
70 nM | ≤ 100 nM | 99% | > 75% | 0.1 nM | ≤ 100 nM | CC(C)(C(=O)NCc1cc(Cl)c(C2CCC(=O)NC2=O)c(Cl)c1)c1ccc2nccnc2c1 (stereo not drawn) [Compound 49]
70 nM | ≤ 100 nM | 96% | > 75% | 1 nM | ≤ 100 nM | CC(C)(C(=O)NCc1cc(Cl)c(C2CCC(=O)NC2=O)c(Cl)c1)c1ccc(C(N)=O)cc1F (stereo not drawn) [Compound 51]
60 nM | ≤ 100 nM | 98% | > 75% | 0.4 nM | ≤ 100 nM | CC(C)(C(=O)NCc1cc(Cl)c(C2CCC(=O)NC2=O)c(Cl)c1)c1ccc2nnccc2c1 (stereo not drawn) [Compound 41]
60 nM | ≤ 100 nM | 97% | > 75% | 1 nM | ≤ 100 nM | CC(C)(C(=O)NCc1cc(Cl)c(C2CCC(=O)NC2=O)c(Cl)c1)c1cccc(NS(C)(=O)=O)c1 (stereo not drawn) [Compound 54]
60 nM | ≤ 100 nM | 96% | > 75% | 2 nM | ≤ 100 nM | CC(C)(C(=O)NCc1cc(Cl)c(C2CCC(=O)NC2=O)c(Cl)c1)c1cccc(S(N)(=O)=O)c1 (stereo not drawn) [Compound 60]
60 nM | ≤ 100 nM | 97% | > 75% | 2 nM | ≤ 100 nM | CNS(=O)(=O)c1ccc(C(C)(C)C(=O)NCc2cc(Cl)c(C3CCC(=O)NC3=O)c(Cl)c2)cc1 (stereo not drawn) [Compound 61]
50 nM | ≤ 100 nM | 97% | > 75% | 2 nM | ≤ 100 nM | CC(C)(C(=O)NCc1cc(Cl)c(C2CCC(=O)NC2=O)c(Cl)c1)c1ccc(S(N)(=O)=O)c(F)c1 (stereo not drawn) [Compound 39, N-(3,5-dichloro-4-(2,6-dioxopiperidin-3-yl)benzyl)-2-(3-fluoro-4-sulfamoylphenyl)-2-methylpropanamide]
50 nM | ≤ 100 nM | 71% | 50 to 75% | 61 nM | ≤ 100 nM | COc1nccc(C(C)(C)C(=O)NCc2cc(Cl)c(C3CCC(=O)NC3=O)c(Cl)c2)n1 (stereo not drawn) [Compound 46]
50 nM | ≤ 100 nM | 96% | > 75% | 2 nM | ≤ 100 nM | CC(C)(C(=O)NCc1cc(Cl)c(C2CCC(=O)NC2=O)c(Cl)c1)c1cccc(S(C)(=O)=O)c1 (stereo not drawn) [Compound 62]
40 nM | ≤ 100 nM | 97% | > 75% | 1 nM | ≤ 100 nM | CC(C)(C(=O)NCc1cc(Cl)c(C2CCC(=O)NC2=O)c(Cl)c1)c1ccc(S(N)(=O)=O)cc1F (stereo not drawn) [Compound 43]
30 nM | ≤ 100 nM | 85% | > 75% | 4 nM | ≤ 100 nM | CC1(C(=O)NCc2cc(Cl)c(C3CCC(=O)NC3=O)c(Cl)c2)COc2ccccc2O1 (stereo not drawn) [Compound 47]
